Source: US8580783B2, “[1,2,4]triazolo [1,5-c]pyrimidine derivatives as Hsp90 modulators” (Nerviano Medical Sciences S.r.l., priority 2010, dated 2013)

Tested on: Her2 protein levels in BT474 breast cancer cells
Experiment: Her2 degradation assay (marker for Hsp90 inhibition)
Assay type: cell-based
Conditions: Homo sapiens, BT-474, 8 hours with compound, Her2 immunocytochemistry, ArrayScan vTi
Protocol: Its inhibition impairs the capacity to fold or stabilize its client proteins, leading to the proteosomal dependent degradation of these unfolded proteins.
Cellular Her2 levels were measured by immunocytochemistry, and quantified using an ArrayScan vTi instrument (Cellomics Thermo Scientific).
Studies were performed as follows: 5000 cells/well are seeded in 96 well plates (Perkin Elmer) in DMEM/5% FCS and incubated for 48 hours at 37° C., 5% CO2.
Medium is then replaced with fresh medium containing test compounds at the required concentration. Concentration curves are prepared in DMEM/10% FCS from compound stocks in DMSO, and final DMSO concentration is 0.1% (v/v). Duplicate wells for each concentration point are prepared, with a typical highest compound concentration of 30 μM. […] Non-specific binding sites are blocked by incubating wells for 1 hour in PBS containing 3% (w/v) BSA. […] At least 10 fields, corresponding to at least 900 cells, are read for each well.

- IC50: 6.78 µM
Structure (SMILES): Nc1nc2c3c(F)cccc3nc(Cc3ccc4c(c3)OCO4)n2n1 [5-(1,3-benzodioxol-5-ylmethyl)-10-fluoro[1,2,4]triazolo[1,5-c]quinazolin-2-amine]
